A value given as a limit tells only on which side of the number the result lay.

One assay deals with T1, IL-17A/A (Homo sapiens, UniProt Q16552).
T1 construct: purchased Genscript Z03228
T1 sequence (Q16552 24-155): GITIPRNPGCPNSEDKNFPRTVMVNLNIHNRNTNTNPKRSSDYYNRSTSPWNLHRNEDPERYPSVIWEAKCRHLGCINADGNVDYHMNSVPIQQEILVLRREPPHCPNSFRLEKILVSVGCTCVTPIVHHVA
The assay can be described thus: IL-17A/A HEK-Blue Cell Assay. The conditions noted are these: HEK-Blue IL-17A reporter cell line, SEAP readout at A630, 20 hours incubation with IL-17A/A; top concentration 10 uM, 1 uM or 0.3 uM. The class given is cell-based.
`CCc1nonc1C(=O)N[C@H](C(=O)Nc1ccc([C@H](C)[C@@H](NC(=O)C(F)F)C(=O)N2CCN(C)[C@@H](C)C2)cc1F)[C@H]1CC[C@H](C)CC1` [Compound 512]: the “IL-17A/A inhibition (pIC50)” value is recorded as “B (8>B≥7 as B)”.

For `CCC(=O)N[C@H](Cc1ccc(NC(=O)[C@@H](NC(=O)c2coc3c2C(=O)NCC3)C2CCCCC2)c(F)c1)C(=O)N1CCN(C)CC1` [Compound 708], the “IL-17A/A inhibition (pIC50)” value is “X2b (compounds were evaluated up to 1 uM and inhibited activity at 1 uM by less than 20%)”.

As for `CCC(=O)N[C@H](Cc1ccc(NC(=O)[C@@H](NC(=O)Cc2cccc(O)c2)C2CCCCC2)c(F)c1)C(=O)N1CCN(C)CC1` [Compound 782], the “IL-17A/A inhibition (pIC50)” value was “X1b (compounds were evaluated up to 10 uM and inhibited activity at 10 uM by less than 20%)”.

In the case of `CCc1nonc1C(=O)N[C@H](C(=O)Nc1ccc([C@H](C)[C@@H](NC(=O)c2ncccc2OC)C(=O)N2CCN(C)CC2)cc1F)[C@H]1CC[C@H](C)CC1` [Compound 578], the “IL-17A/A inhibition (pIC50)” value was “X3b (compounds were evaluated up to 0.3 uM and inhibited activity at 0.3 uM by less than 20%)”.

As to `CCC(=O)N[C@H](Cc1ccc(NC(=O)[C@@H](NC(=O)c2nccn2CC)C2CCCCC2)c(F)c1)C(=O)N1CCN(C)CC1` [Compound 772], the “IL-17A/A inhibition (pIC50)” value is “X1a (compounds were evaluated up to 10 uM and did not inhibit activity by >80%, however they showed some activity at 10 uM (less than 80% and more than 20%))”.

Turning to `CCC(=O)N[C@H](Cc1ccc(NC(=O)[C@H](Cc2ccccc2Cl)NC(=O)C(F)(F)c2ccc(OC)nc2)c(F)c1)C(=O)N1CCN(C)CC1` [Compound 731], the “IL-17A/A inhibition (pIC50)” value was “X2b (compounds were evaluated up to 1 uM and inhibited activity at 1 uM by less than 20%)”.

`CCC(=O)N[C@@H](C(=O)N1CC(n2ccnc2)C1)[C@@H](C)c1ccc(NC(=O)[C@@H](NC(=O)c2nonc2CC)[C@H]2CC[C@H](C)CC2)c(F)c1` [Compound 580]: the “IL-17A/A inhibition (pIC50)” value was “X3a (compounds were evaluated up to 0.3 uM and did not inhibit activity by >80%, however they showed some activity at 0.3 uM (less than 80% and more than 20%))”.

With `CCC(=O)N[C@@H](C(=O)N1CCN(CC)C(C)(C)C1)[C@@H](C)c1ccc(NC(=O)[C@@H](NC(=O)c2nonc2CC)[C@H]2CC[C@H](C)CC2)c(F)c1` [Compound 466], the “IL-17A/A inhibition (pIC50)” value was “A (compounds having a pIC50 of greater than or equal 8 as A)”.

With `CCC(=O)N[C@H](Cc1ccc(NC(=O)[C@@H](NC(=O)c2ccnn2CC)c2ccccc2)c(F)c1)C(=O)N1CCN(C)CC1` [Compound 775], the “IL-17A/A inhibition (pIC50)” value was “X1b (compounds were evaluated up to 10 uM and inhibited activity at 10 uM by less than 20%)”.

Still in this assay, the particulars now being: HEK-Blue IL-17A reporter cell line, SEAP readout at A630, 20 hours incubation with IL-17A/A; top concentration 10 uM, 1 uM or 0.3 uM; read-out: IL-17A/A inhibition (pIC50) (converted).
With `CCC(=O)N[C@@H](C(=O)N1CCC(C)(O)CC1)[C@@H](C)c1ccc(NC(=O)[C@@H](NC(=O)C(F)(F)c2cncs2)[C@H]2CC[C@H](C)CC2)c(F)c1` [Compound 378], the IC50 was 10 to 100 nM.

For the molecule `CCc1nonc1C(=O)N[C@H](C(=O)Nc1ccc([C@H](C)C(NC(=O)C(C)F)C(=O)N2CCN(C)[C@H](C)C2)cc1F)[C@H]1CC[C@H](C)CC1` (single isomer, unassigned) [Compound 598], the IC50 was 10 to 100 nM.

Consider `CCC(=O)NC(C(=O)N1CCN(Cc2ccccc2)CC1)[C@@H](C)c1ccc(NC(=O)[C@@H](NC(=O)c2ccnn2CC)[C@H]2CC[C@H](C)CC2)c(F)c1` (stereo partly drawn) [Compound 367], for which the IC50 is 10 to 100 nM.

`CCc1nonc1C(=O)N[C@H](C(=O)Nc1ccc([C@H](C)[C@@H](NC(=O)C(C)(F)F)C(=O)N2CCN(C)[C@H](C)C2)cc1F)[C@H]1CC[C@H](C)CC1` [Compound 503]: the IC50 was 10 to 100 nM.

For `CCC(=O)N[C@@H](C(=O)N1CCS(=O)(=O)CC1)[C@@H](C)c1ccc(NC(=O)[C@@H](NC(=O)c2ccnn2CC)[C@H]2CC[C@H](C)CC2)c(F)c1` [Compound 392], the IC50 is 10 to 100 nM.

`C[C@@H](c1ccc(NC(=O)[C@@H](NC(=O)c2ccnn2C2CCCC2)[C@H]2CC[C@H](C)CC2)c(F)c1)[C@@H](NC(=O)C1(F)CC1)C(=O)N1CCOCC1` [Compound 380]: the IC50 is 10 to 100 nM.

Turning to `CCC(=O)N[C@@H](C(=O)N1CCN(C)CC1)[C@@H](C)c1ccc(NC(=O)C(NC(=O)C(F)(F)c2ccc(OC)nc2)[C@@H](C)C2CCCCC2)c(F)c1` (stereo partly drawn) [Compound 394], the IC50 was below 10 nM.

With `CCc1ccoc1C(=O)N[C@H](C(=O)Nc1ccc([C@H](C)[C@@H](NC(=O)c2cnns2)C(=O)N2CCN(C)CC2)cc1F)[C@H]1CC[C@H](C)CC1` [Compound 409], the IC50 was 10 to 100 nM.

On to `CCC(=O)N[C@@H](C(=O)N1CCN(C)CC1)[C@@H](C)c1ccc(NC(=O)[C@@H](NC(=O)C(F)(F)c2ccc(OC)nc2)C2CCCCC2)c(F)c1` [Compound 218], for which the IC50 was 10 to 100 nM.

Consider `CCC(=O)N[C@@H](C(=O)N(C)Cc1cncn1C)[C@@H](C)c1ccc(NC(=O)[C@@H](NC(=O)c2nonc2CC)[C@H]2CC[C@H](C)CC2)c(F)c1` [Compound 455], for which the IC50 was 100 to 10000 nM.

`CCC(=O)N[C@@H](C(=O)N1CCN(Cc2ccccc2)CC1)[C@@H](C)c1ccc(NC(=O)[C@@H](NC(=O)c2ccnn2CC)C2CCCCC2)c(F)c1` [Compound 366]: the IC50 is below 10 nM.

Turning to `CCC(=O)N[C@@H](C(=O)N1CCN(C)CC1)[C@@H](C)c1ccc(NC(=O)C(NC(=O)c2ccnn2CC)C2CCc3cc(F)cc(F)c32)c(F)c1` (single isomer, unassigned) [Compound 809], the IC50 is below 10 nM.

Turning to `CCC(=O)N[C@@H](C(=O)N1CCN(C)CC1)[C@@H](C)c1ccc(NC(=O)C(NC(=O)C(F)(F)c2cccc(C#N)c2)C2CCCC2)c(F)c1` (stereo partly drawn) [Compound 292], the IC50 is 10 to 100 nM.

`CCC(=O)N[C@@H](C(=O)N1CCN(C)CC1)[C@@H](CC)c1ccc(NC(=O)[C@@H](NC(=O)C(F)(F)c2ccc(OC)nc2)C2CCCCCC2)cc1` [Compound 227]: the IC50 is 10 to 100 nM.

With `CCC(=O)N[C@@H](C(=O)N1CCN(C)CC1)[C@@H](C)c1ccc(NC(=O)[C@@H](NC(=O)c2nnnn2CC)[C@H]2CC[C@H](C)CC2)c(F)c1` [Compound 527], the IC50 was 10 to 100 nM.

For the molecule `CCC(=O)N[C@@H](C(=O)N1CCN(C)CC1)[C@@H](C)c1ccc(NC(=O)[C@@H](NC(=O)C(F)(F)c2ccc3c(c2)OCO3)C2CCCCC2)c(F)c1` [Compound 244], the IC50 is 10 to 100 nM.

As to `CCC(=O)N[C@@H](C(=O)N1CCC(F)(F)CC1)[C@@H](C)c1ccc(NC(=O)[C@@H](NC(=O)c2ccnn2CC)[C@H]2CC[C@H](C)CC2)c(F)c1` [Compound 369], the IC50 is 10 to 100 nM.

As to `CCn1nccc1C(=O)N[C@H](C(=O)Nc1ccc(C[C@@H](Nc2ncnc3cnccc23)C(=O)N2CCN(C)CC2)cc1F)C1CCCCC1` [Compound 320], the IC50 was 10 to 100 nM.

With `CC1CCC(C(NC(=O)C(F)(F)c2cccc(C#N)c2)C(=O)Nc2ccc(C(C)C(NC(=O)c3cnns3)C(=O)N3CCN(C)CC3)cc2F)CC1` (stereo not drawn) [Compound 336], the IC50 is below 10 nM.

For the molecule `CCn1cc(C(F)(F)C(=O)N[C@H](C(=O)Nc2ccc([C@H](C)[C@@H](NC(=O)c3cnns3)C(=O)N3CCN(C)CC3)cc2F)[C@H]2CC[C@H](C)CC2)cn1` [Compound 407], the IC50 is below 10 nM.

Turning to `CCC(=O)N[C@@H](C(=O)N1CCN(C)CC1)[C@@H](C)c1ccc(NC(=O)[C@@H](NC(=O)c2nonc2CC)[C@H](C)[C@H]2CC[C@H](C)CC2)c(F)c1` [Compound 586], the IC50 is below 10 nM.

For `CCC(=O)N[C@H](Cc1ccc(NC(=O)[C@@H](NC(=O)C(F)(F)c2ccc(OC)nc2)C2CCCCCC2)c(F)c1)C(=O)N1CCN(C)CC1` [Compound 214], the IC50 is 10 to 100 nM.

For the molecule `C[C@@H](c1ccc(NC(=O)[C@@H](NC(=O)C(F)(F)C2CC2)C2CCCCCC2)c(F)c1)[C@@H](NC(=O)c1cnns1)C(=O)N1CCN(C)CC1` [Compound 536], the IC50 was 10 to 100 nM.

`CCC(=O)N[C@@H](C(=O)N1CCN(CC)[C@H](C)C1)[C@@H](C)c1ccc(NC(=O)[C@@H](NC(=O)c2ccnn2CC)[C@H]2CC[C@H](C)CC2)c(F)c1` [Compound 426]: the IC50 is below 10 nM.

Regarding `CCC(=O)N[C@@H](C(=O)N1C[C@@H](C)N[C@@H](C)C1)[C@@H](C)c1ccc(NC(=O)[C@@H](NC(=O)c2ccnn2CC)[C@H]2CC[C@H](C)CC2)c(F)c1` [Compound 425], the IC50 was 10 to 100 nM.

Take `CCC(=O)N[C@@H](C(=O)N1CCN(C)CC1)[C@@H](C)c1ccc(NC(=O)[C@@H](NC(=O)c2csc3cnccc23)C2CCCCC2)c(F)c1` [Compound 249]: the IC50 was 10 to 100 nM.

For the molecule `CCC(=O)N[C@@H](C(=O)N1CCN(C)CC1)[C@@H](C)c1ccc(NC(=O)[C@@H](NC(=O)C(F)(F)c2cccc(C#N)c2)C2CCOCC2)c(F)c1` [Compound 674], the IC50 is 100 to 10000 nM.

Turning to `CCC(=O)N[C@@H](C(=O)N1CCN(C)CC1)[C@@H](C)c1ccc(NC(=O)C(NC(=O)c2nonc2CC)C(C)C2CCC(F)(F)CC2)c(F)c1` (stereo partly drawn) [Compound 607], the IC50 is 10 to 100 nM.

On to `CCc1nonc1C(=O)N[C@H](C(=O)Nc1ccc([C@H](C)[C@@H](NC(=O)C(C)(F)F)C(=O)N2CCN(C)CC2)cc1F)[C@H]1CC[C@H](C)CC1` [Compound 501], for which the IC50 is 10 to 100 nM.

With `CCC(=O)N[C@@H](C(=O)N1CCN(C)CC1)[C@@H](C)c1ccc(NC(=O)[C@@H](NC(=O)c2cccn2CC)[C@H]2CC[C@H](C)CC2)c(F)c1` [Compound 280], the IC50 was 10 to 100 nM.

As for `CCC(=O)N[C@@H](C(=O)N1CCN(C)CC1)[C@@H](C)c1ccc(NC(=O)[C@@H](NC(=O)C(F)(F)C2CCN(C(C)=O)CC2)C2CCCCC2)c(F)c1` [Compound 653], the IC50 is 100 to 10000 nM.

In the case of `CCC(=O)N[C@H](Cc1ccc(NC(=O)[C@@H](NC(=O)C(F)(F)c2cccnc2)C2CCCCC2)c(F)c1)C(=O)N1CCN(C)CC1` [Compound 205], the IC50 was 100 to 10000 nM.

As to `CCC(=O)N[C@@H](C(=O)N1CCOCC1)[C@@H](C)c1ccc(NC(=O)[C@@H](NC(=O)c2ccnn2CC)C2CCCCCC2)c(F)c1` [Compound 351], the IC50 was 10 to 100 nM.

Values taken from patent US12421212B2, “Substituted benzenecarboxamides as IL-17A modulators” (DiCE Alpha, Inc., priority 2019, dated 2025).
